Reference: PubChem BioAssay AID1963829 (Molecular Pharmacology Branch, DTP, NCI, 2024)

Each compound was assayed on 935938-334-R-J1-PDC complex spheroid viability (assay: Anticancer human tumor 935938-334-R-J1-PDC patient-derived small intestine adenocarcinoma cell line growth inhibition [POLQ]). Details: second compound 3.16 µM; first compound 0.1 µM; stronger effect = lower value.
Summary of the method: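 Patient-derived tumour cells were co-cultured with HUVEC and mesenchymal stem cells as multicellular spheroids at 37 °C. They were treated with POLQ inhibitors (novobiocin, ART-558, RP6685) alone or combined with other agents. Top concentrations were at or near clinical Cmax (otherwise 10 microM; SN-38 at 1 microM), decreasing in half-log steps.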
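Note: spheroids exposed to drugs for seven days before viability read; 100% = DMSO vehicle control wells.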

With O=C(Nc1ccc(O)c(NS(=O)(=O)c2ccc(F)cc2)c1)c1ccc(-c2ccccc2)cc1 + Cc1cccc(N(C)C(=O)C2C(O)CCN2c2nc(C)cc(C(F)(F)F)c2C#N)c1 as the compound, how does the viability, T/C read?
Its viability, T/C is 114%.

How did the viability, T/C turn out when COc1cc(C2c3cc4c(cc3C(OC3OC5COC(C)OC5C(O)C3O)C3COC(=O)C23)OCO4)cc(OC)c1O (stereo unspecified) + Cc1cccc(N(C)C(=O)C2C(O)CCN2c2nc(C)cc(C(F)(F)F)c2C#N)c1 was run?
Its viability, T/C is 93.6%.

Which viability, T/C does the source give for CC1COCCN1c1cc(C2(S(C)(=N)=O)CC2)nc(-c2ccnc3[nH]ccc23)n1 (stereo unspecified) + COC1C(OC(N)=O)C(O)C(Oc2ccc3c(O)c(NC(=O)c4ccc(O)c(CC=C(C)C)c4)c(=O)oc3c2C)OC1(C)C here?
The viability, T/C was 87.8%.

Which viability, T/C does the source give for COc1cccc2c1C(=O)c1c(O)c3c(c(O)c1C2=O)CC(O)(C(=O)CO)CC3OC1CC(N)C(O)C(C)O1 (stereo unspecified) + Cc1cccc(N(C)C(=O)C2C(O)CCN2c2nc(C)cc(C(F)(F)F)c2C#N)c1 here?
The viability, T/C was 39.4%.

Same assay, conditions: second compound 3.16 µM; first compound 0.316 µM; stronger effect = lower value

How did the viability, T/C turn out when COc1ccc([C@@H](O)c2cc(-c3ncnc4cc(N5CCOCC5)ccc34)c(F)cc2Cl)nn1 + COC1C(OC(N)=O)C(O)C(Oc2ccc3c(O)c(NC(=O)c4ccc(O)c(CC=C(C)C)c4)c(=O)oc3c2C)OC1(C)C was run?
Its viability, T/C is 108%.

For Nc1ccn(C2OC(CO)C(O)C2(F)F)c(=O)n1 (stereo unspecified) + Cc1cccc(N(C)C(=O)C2C(O)CCN2c2nc(C)cc(C(F)(F)F)c2C#N)c1, which viability, T/C is on record?
Its viability, T/C is 24.8%.

COc1cc2cc(C(=O)CCC(=O)O)sc2cc1OC + Cc1cccc(N(C)C(=O)C2C(O)CCN2c2nc(C)cc(C(F)(F)F)c2C#N)c1 was tested. Which viability, T/C did it give?
The viability, T/C was 98.5%.

How did the viability, T/C turn out when O=C(c1cc(Cc2n[nH]c(=O)c3ccccc23)ccc1F)N1CCN(C(=O)C2CC2)CC1 + COC1C(OC(N)=O)C(O)C(Oc2ccc3c(O)c(NC(=O)c4ccc(O)c(CC=C(C)C)c4)c(=O)oc3c2C)OC1(C)C was run?
The viability, T/C was 107%.

O=C(Nc1ccc(O)c(NS(=O)(=O)c2ccc(F)cc2)c1)c1ccc(-c2ccccc2)cc1 + Cc1cccc(N(C)C(=O)C2C(O)CCN2c2nc(C)cc(C(F)(F)F)c2C#N)c1 was tested. Which viability, T/C did it give?
Its viability, T/C is 95.3%.

Which viability, T/C does the source give for COc1cc(C2c3cc4c(cc3C(OC3OC5COC(C)OC5C(O)C3O)C3COC(=O)C23)OCO4)cc(OC)c1O (stereo unspecified) + Cc1cccc(N(C)C(=O)C2C(O)CCN2c2nc(C)cc(C(F)(F)F)c2C#N)c1 here?
The viability, T/C was 54%.

How did the viability, T/C turn out when CC1COCCN1c1cc(C2(S(C)(=N)=O)CC2)nc(-c2ccnc3[nH]ccc23)n1 (stereo unspecified) + COC1C(OC(N)=O)C(O)C(Oc2ccc3c(O)c(NC(=O)c4ccc(O)c(CC=C(C)C)c4)c(=O)oc3c2C)OC1(C)C was run?
Its viability, T/C is 90.2%.

For COc1cccc2c1C(=O)c1c(O)c3c(c(O)c1C2=O)CC(O)(C(=O)CO)CC3OC1CC(N)C(O)C(C)O1 (stereo unspecified) + Cc1cccc(N(C)C(=O)C2C(O)CCN2c2nc(C)cc(C(F)(F)F)c2C#N)c1, which viability, T/C is on record?
Its viability, T/C is 35.3%.

Same assay, conditions: second compound 3.16 µM; first compound 1 µM; stronger effect = lower value

With COc1ccc([C@@H](O)c2cc(-c3ncnc4cc(N5CCOCC5)ccc34)c(F)cc2Cl)nn1 + COC1C(OC(N)=O)C(O)C(Oc2ccc3c(O)c(NC(=O)c4ccc(O)c(CC=C(C)C)c4)c(=O)oc3c2C)OC1(C)C as the compound, how does the viability, T/C read?
Its viability, T/C is 81.4%.

For Nc1ccn(C2OC(CO)C(O)C2(F)F)c(=O)n1 (stereo unspecified) + Cc1cccc(N(C)C(=O)C2C(O)CCN2c2nc(C)cc(C(F)(F)F)c2C#N)c1, which viability, T/C is on record?
The viability, T/C was 19.2%.

With COc1cc2cc(C(=O)CCC(=O)O)sc2cc1OC + Cc1cccc(N(C)C(=O)C2C(O)CCN2c2nc(C)cc(C(F)(F)F)c2C#N)c1 as the compound, how does the viability, T/C read?
The viability, T/C was 95.9%.

For O=C(c1cc(Cc2n[nH]c(=O)c3ccccc23)ccc1F)N1CCN(C(=O)C2CC2)CC1 + COC1C(OC(N)=O)C(O)C(Oc2ccc3c(O)c(NC(=O)c4ccc(O)c(CC=C(C)C)c4)c(=O)oc3c2C)OC1(C)C, which viability, T/C is on record?
The viability, T/C was 75.9%.

With O=C(Nc1ccc(O)c(NS(=O)(=O)c2ccc(F)cc2)c1)c1ccc(-c2ccccc2)cc1 + Cc1cccc(N(C)C(=O)C2C(O)CCN2c2nc(C)cc(C(F)(F)F)c2C#N)c1 as the compound, how does the viability, T/C read?
Its viability, T/C is 88.6%.

With COc1cc(C2c3cc4c(cc3C(OC3OC5COC(C)OC5C(O)C3O)C3COC(=O)C23)OCO4)cc(OC)c1O (stereo unspecified) + Cc1cccc(N(C)C(=O)C2C(O)CCN2c2nc(C)cc(C(F)(F)F)c2C#N)c1 as the compound, how does the viability, T/C read?
Its viability, T/C is 37.4%.

For CC1COCCN1c1cc(C2(S(C)(=N)=O)CC2)nc(-c2ccnc3[nH]ccc23)n1 (stereo unspecified) + COC1C(OC(N)=O)C(O)C(Oc2ccc3c(O)c(NC(=O)c4ccc(O)c(CC=C(C)C)c4)c(=O)oc3c2C)OC1(C)C, which viability, T/C is on record?
Its viability, T/C is 68.4%.

Which viability, T/C does the source give for COc1cccc2c1C(=O)c1c(O)c3c(c(O)c1C2=O)CC(O)(C(=O)CO)CC3OC1CC(N)C(O)C(C)O1 (stereo unspecified) + Cc1cccc(N(C)C(=O)C2C(O)CCN2c2nc(C)cc(C(F)(F)F)c2C#N)c1 here?
The viability, T/C was 19.8%.

Same assay, conditions: second compound 3.16 µM; first compound 3.16 µM; stronger effect = lower value

COc1ccc([C@@H](O)c2cc(-c3ncnc4cc(N5CCOCC5)ccc34)c(F)cc2Cl)nn1 + COC1C(OC(N)=O)C(O)C(Oc2ccc3c(O)c(NC(=O)c4ccc(O)c(CC=C(C)C)c4)c(=O)oc3c2C)OC1(C)C was tested. Which viability, T/C did it give?
Its viability, T/C is 73%.
